One may read the IC50 as the midpoint of a concentration-inhibition curve.

SMILES strings stand for the structures. “And” between values parts separate entries of the source, which are not always exact repeats. Equal entries are not always repeated. Where two headings read alike, the source gives them in different places.

Results on 21 compounds are retold here after patent US7157452B2, “Substituted 4,9-dihydrocyclopenta{imn}phenanthridine-5-ones derivatives thereof and their uses” (MGI GP, Inc., priority 2001, dated 2007).

One assay concerns rabbits. The following applies: cited from earlier work.
A further assay concerns Swiss albino mice. Kind of assay: Gout model: MSU crystal-induced neutrophil recruitment (peritonitis). The assay is classed as in vivo. As for the experimental part:
Male outbread Swiss albino mice (20–22 g body weight) were purchased from Banton and Kingsman (T.O. strain; Hull, Humberside) and maintained on a standard chow pellet diet with tap water ad libitum and a 12:00 h light dark cycle. All animals were housed for 1 week prior to experimentation to allow body weight to reach 23–30 g.
1.11b-dihydrobenzopyrano[4,3,2-de]isoquinolin-1-one was dissolved in 100% DMSO at room temperature at a concentration of 45 mg in 2 ml. The compound was then injected into the peritoneal cavity, so as each mouse received a single dose corresponding to 45 mg/2 ml/kg (e.g. 60 μl for a mouse of 30 g). Control mice received DMSO at 2 ml/kg i.p. A third group of mice which were left untreated were added to control for potential effects of the vehicle. The study involved therefore, the following three groups: group A, untreated mice, n=6, group B, DMSO-treated mice, n=8, and group C, mice treated with 1.1 lb-dihydrobenzopyrano[4,3,2-de]isoquinolin-1-one, n=8
MSU crystal-induced neutrophil recruitment was tested as follows. In all cases, mice were treated 1 h after the treatment noted above, with MSU crystals. A homogenous suspension of MSU crystals was obtained by a 30 min rotation. Peritonitis was induced by injection of 3 mg MSU crystals in 0.5 ml PBS (0.1 M, pH 7.4), and the recruitment of neutrophils into the cavity evaluated at the 6 h time point (Gerting et al., 1997, J. Pharmacol. Exp. Ther. 233: 123–130). Animals were then euthanised by CO2 exposure and the peritoneal cavity washed with 3 ml of PBS supplemented with 3 mM EDTA and 25 U/ml heparin.
An aliquot (100 μl) of the lavage fluid was then diluted 1:10 in Turk's solution (0.01% crystal violet in 3% acetic acid). The samples were then vortexed and 10 μl of the stained cell solution were placed in a Neubauer haematocymometer and neutrophils numbers counted using a light microscope (Olympus B061). […]
Data are shown for single mice, and also shown as mean±S.E. of (n) mice per group. Statistical differences were determined by ANOVA, plus Bonferroni test. […]

In the next assay the test system is male Long-Evans rats. Kind of assay: Focal cerebral ischemia (right distal MCA cauterization with temporary bilateral CCA occlusion). In kind it is in vivo. Conditions: 24 h, mean±SD. As for the experimental part:
Focal cerebral ischemia is produced by cauterization of the right distal MCA (middle cerebral artery) with bilateral temporary common carotid artery occlusion in male Long-Evans rats for 90 minutes. All procedures performed on the animals are approved by the University Institutional Animal Care and Use Committee of the University of Pennsylvania. A total of 42 rats (weights: 230–340 g) obtained from Charles River were used in this study. The animals fasted overnight with free access to water prior to the surgical procedure.
Two hours prior to MCA occlusion, varying amounts (control, n=14; 5 mg/kg, n=7; 10 mg/kg, n=7; 20 mg/kg, n=7; and 40 mg/kg, n=7) of the compound, 3,4-dihydro-5-[4-(1-piperidinyl)-butoxy]-1(2H)-isoquinolinone (“DPQ”) were dissolved in dimethyl sulfoxide (DMSO) using a sonicator. A volume of 1.28 ml/kg of the resulting solution was injected intraperitoneally into […].
The rats were then anesthetized with halothane (4% for induction and 0.8%–1.2% for the surgical procedure) in a mixture of 70% nitrous oxide and 30% oxygen. The body temperature was monitored by a rectal probe and maintained at 37.5±0.5° C. with a heating blanket regulated by a homeothermic blanket control unit (Harvard Apparatus Limited, Kent, U.K.). A catheter (PE-50) was placed into the tail artery, and arterial pressure was continuously monitored and recorded on a Grass polygraph recorder (Model 7D, Grass Instruments, Quincy, Mass.). Samples for blood gas analysis (arterial pH, PaO2 and PaCO2) were also talcen from the tail artery catheter and measure with a blood gas analyzer (ABL 30, Radiometer, Copenhagen, Denmark). Arterial blood samples were obtained 30 minutes after MCA occlusion.
The head of the animal was positioned in a stereotaxic frame, and a right parietal incision between the right lateral canthus and the external auditory meatus was made. Using a dental drill constantly cooled with saline, a 3 mm burr hole was prepared over the cortex supplied by the right MCA, 4 mm lateral to the sagittal suture and 5 mm caudal to the coronal suture. The dura mater and a thin inner bone layer were kept, care being taken to position the probe over a tissue area devoid of large blood vessels. The flow probe (tip diameter of 1 mm fiber separation of 0.23 mm) was lowered to the bottom of the cranial burr hole using a micromanipulator. The probe was held stationary by a probe holder secured to the skull with dental cement. The microvascular blood flow in the right parietal cortex was continuously monitored with a laser Doppler flowmeter (FloLab, Moor, Devon, U.K., and Periflux 4001, Perimed, Stockholm, Sweden). […]

The subject of the next assay is PARP. The following applies: read-out: IC50 for inhibiting PARP; reported by Suto et al.; cited from earlier work.
Assay [1] has as its target T1, purified recombinant human PARP (Homo sapiens, UniProt P09874).
T1 construct: purchased Trevigan (Gaithersburg, Md.)
Kind of assay: PARP enzyme assay with [3H]NAD, scintillation counting. In kind it is biochemical. On the procedure: The reaction is initiated by incubating the mixture at 25° C. After 15 minutes of incubation, the reaction is terminated by adding 500 microliters of ice cold 20% (w/v) trichloroacetic acid. The precipitate formed is transferred onto a glass fiber filter (Packard Unifilter-GF/B) and washed three times with ethanol. After the filter is dried, the radioactivity is determined by scintillation counting.
Using the PARP assay described above, approximate IC50 (μM) values were obtained as shown in the following Table III, which also include specific embodiments of the compounds of the present invention: […]

Where [2] appears, read: Table III, read-out: approximate IC50.

T1 sequence (P09874 whole entry): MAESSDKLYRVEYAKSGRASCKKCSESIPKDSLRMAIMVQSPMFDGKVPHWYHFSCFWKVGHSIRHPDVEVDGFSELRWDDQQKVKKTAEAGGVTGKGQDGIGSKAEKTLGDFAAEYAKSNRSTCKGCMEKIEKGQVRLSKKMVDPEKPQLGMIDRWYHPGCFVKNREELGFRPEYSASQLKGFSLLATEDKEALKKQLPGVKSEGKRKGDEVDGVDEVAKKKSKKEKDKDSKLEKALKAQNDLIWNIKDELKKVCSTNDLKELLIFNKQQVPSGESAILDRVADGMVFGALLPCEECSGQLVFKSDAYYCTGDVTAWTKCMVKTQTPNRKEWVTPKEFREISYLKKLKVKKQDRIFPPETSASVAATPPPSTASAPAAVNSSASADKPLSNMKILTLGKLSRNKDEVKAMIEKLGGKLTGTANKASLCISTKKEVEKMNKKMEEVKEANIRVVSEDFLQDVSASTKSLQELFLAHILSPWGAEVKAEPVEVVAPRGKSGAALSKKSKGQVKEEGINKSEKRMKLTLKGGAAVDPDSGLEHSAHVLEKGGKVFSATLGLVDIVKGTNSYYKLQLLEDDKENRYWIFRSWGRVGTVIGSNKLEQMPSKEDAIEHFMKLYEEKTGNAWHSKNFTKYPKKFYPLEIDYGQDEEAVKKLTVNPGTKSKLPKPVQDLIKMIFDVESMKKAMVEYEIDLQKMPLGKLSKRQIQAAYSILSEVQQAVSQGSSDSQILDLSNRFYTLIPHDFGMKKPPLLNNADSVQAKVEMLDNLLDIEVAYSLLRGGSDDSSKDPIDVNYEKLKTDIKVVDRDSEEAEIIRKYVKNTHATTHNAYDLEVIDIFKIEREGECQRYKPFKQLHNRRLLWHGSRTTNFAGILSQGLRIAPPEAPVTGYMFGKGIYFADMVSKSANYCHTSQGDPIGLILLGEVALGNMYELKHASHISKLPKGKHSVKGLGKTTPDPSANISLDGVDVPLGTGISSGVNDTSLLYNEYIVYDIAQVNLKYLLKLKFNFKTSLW

Take `Oc1cccc2c(O)nccc12` [1,5-dihydroxyisoquinoline]: in the assay with rabbits (single injection 1 mg/kg), the “reduction in infarct size” value is on record as 38–42%.

Turning to `O=C1N=Cc2cccc3c2C1c1ccccc1O3` (centres unmarked) [1,11b-dihydrobenzopyrano[4,3,2-de]isoquinolin-1-one], the “inhibition of cell influx vs. the vehicle group” value with Swiss albino mice (45 mg/kg i.p., MSU crystals, 6 h) came out at 55%. Further, in the assay on Swiss albino mice (group C, 45 mg/kg i.p. 1 h prior to 3 mg MSU crystals, peritoneal lavage at 6 h, one value per mouse, 45 mg/kg), the “Neutrophil Numbers (single mice)” value is 2.4 10^6 per mouse (2×) and 3.0 10^6 per mouse (2×) and 2.7 10^6 per mouse and 2.1 10^6 per mouse (2×) and 5.1 10^6 per mouse. In addition, in the assay with Swiss albino mice (group C, 45 mg/kg i.p., MSU crystals (3 mg), 6 h, n=8, P<0.05 vs. vehicle group B (6.30 ± 0.33)), the “Neutrophils (10^6 per mouse), mean ± S.E.” value is 2.85 ± 0.34 (8)* 10^6 per mouse.

Turning to `NC(=O)c1cccc(N)c1` [3-aminobenzamide], the “reduction in infarct size in the heart” value in the assay with rabbits (single injection 10 mg/kg, one minute before occlusion or one minute before reperfusion) is on record as 32–42%.

For `O=C1NCCc2c(OCCCCN3CCCCC3)cccc21` [DPQ, 3,4-dihydro-5-[4-(1-piperidinyl)-butoxy]-1(2H)-isoquinolinone], the “damaged volume (infarct volume)” value in the assay on male Long-Evans rats (5 mg/kg i.p. 2 h before and 2 h after MCA occlusion, control 165.2±34.0, p<0.001) was 106.7±23.2 mm^3; with male Long-Evans rats (10 mg/kg i.p. 2 h before and 2 h after MCA occlusion, control 165.2±34.0, p<0.001), 76.4±16.3 mm^3; in the assay with male Long-Evans rats (20 mg/kg i.p. 2 h before and 2 h after MCA occlusion, control 165.2±34.0, p<0.01), 110.2±42.0 mm^3; with male Long-Evans rats (40 mg/kg i.p. 2 h before and 2 h after MCA occlusion, no significant difference from control 165.2±34.0), 135.6±44.8 mm^3. For the same compound, the half-maximal inhibitory concentration (IC50) in the assay with PARP is 40 nM.

Take `O=C(CN1CCN(c2ccc(F)cc2F)CC1)Nc1ccc2[nH]c(=O)c3cccc4c3c2c1C4` [Example 41]: the IC50 in assay [1] (setting [2]) is 336 nM; in assay [1] (examples table, read-out: IC50), 336 nM.

For `O=C(CN1CCN(c2ccccn2)CC1)Nc1ccc2[nH]c(=O)c3cccc4c3c2c1C4` [Example 42], the IC50 in assay [1] (setting [2]) worked out at 158 nM; in assay [1] (examples table, read-out: IC50), 158 nM.

Take `O=C(CN1CCC(N2CCCC2)CC1)Nc1ccc2[nH]c(=O)c3cccc4c3c2c1C4` [Example 44]: the IC50 in assay [1] (setting [2]) came to 94 nM; in assay [1] (examples table, read-out: IC50) it was 94 nM.

With `CCN(CC)CCNCC(=O)Nc1ccc2[nH]c(=O)c3cccc4c3c2c1C4` [Example 45], the IC50 in assay [1] (setting [2]) was 133 nM; in assay [1] (examples table, read-out: IC50), 133 nM.

Take `CCN(CC)CCCNCC(=O)Nc1ccc2[nH]c(=O)c3cccc4c3c2c1C4` [Example 46]: the IC50 in assay [1] (setting [2]) was 118 nM; in assay [1] (examples table, read-out: IC50), 118 nM.

With `O=C(CNCCN1CCOCC1)Nc1ccc2[nH]c(=O)c3cccc4c3c2c1C4` [Example 47], the IC50 in assay [1] (setting [2]) came out at 457 nM; in assay [1] (examples table, read-out: IC50), 457 nM.

In the case of `CN(C)CCCN(C)CC(=O)Nc1ccc2[nH]c(=O)c3cccc4c3c2c1C4` [Example 48], the IC50 was determined as 144 nM in assay [1] (setting [2]) and 144 nM in assay [1] (examples table, read-out: IC50).

Take `CN(C)CCCN1CCN(CC(=O)Nc2ccc3[nH]c(=O)c4cccc5c4c3c2C5)CC1` [Example 49]: the IC50 in assay [1] (setting [2]) is 72 nM; in assay [1] (examples table, read-out: IC50), 72 nM.

Turning to `CN(C)CCN1CCN(CC(=O)Nc2ccc3[nH]c(=O)c4cccc5c4c3c2C5)CC1` [Example 50], the IC50 in assay [1] (setting [2]) came out at 115 nM; in assay [1] (examples table, read-out: IC50), 115 nM.

Take `CN1CCCC(CN2CCN(CC(=O)Nc3ccc4[nH]c(=O)c5cccc6c5c4c3C6)CC2)C1` (centres unmarked) [Example 51]: the IC50 in assay [1] (setting [2]) came to 178 nM; in assay [1] (examples table, read-out: IC50), 178 nM.

Consider `CN1CCC(CN2CCN(CC(=O)Nc3ccc4[nH]c(=O)c5cccc6c5c4c3C6)CC2)CC1` [Example 52], for which the IC50 in assay [1] (setting [2]) came out at 96 nM; in assay [1] (examples table, read-out: IC50), 96 nM.

For `CN1CCC(N2CCN(CC(=O)Nc3ccc4[nH]c(=O)c5cccc6c5c4c3C6)CC2)CC1` [Example 53], the IC50 in assay [1] (setting [2]) is 119 nM; in assay [1] (examples table, read-out: IC50), 119 nM.

Turning to `O=C(CN1CCN(Cc2ccncc2)CC1)Nc1ccc2[nH]c(=O)c3cccc4c3c2c1C4` [Example 54], the IC50 in assay [1] (setting [2]) stood at 267 nM; in assay [1] (examples table, read-out: IC50) it was 267 nM.

Turning to `O=C(CN1CCN(CCN2CCOCC2)CC1)Nc1ccc2[nH]c(=O)c3cccc4c3c2c1C4` [Example 55], the IC50 in assay [1] (setting [2]) was 558 nM; in assay [1] (examples table, read-out: IC50) it was 558 nM.

As to `O=C(CN1CCN(c2ccncc2)CC1)Nc1ccc2[nH]c(=O)c3cccc4c3c2c1C4` [Example 56], the IC50 in assay [1] (setting [2]) came to 204 nM; in assay [1] (examples table, read-out: IC50), 204 nM.

As to `CN(C)CCN(C)CC(=O)Nc1ccc2[nH]c(=O)c3cccc4c3c2c1C4` [Example 57], the IC50 was determined as 55 nM in assay [1] (setting [2]) and 55 nM in assay [1] (examples table, read-out: IC50).

On to `O=C(CN1CCN(CCN2CCCC2)CC1)Nc1ccc2[nH]c(=O)c3cccc4c3c2c1C4` [Example 58], for which the IC50 in assay [1] (setting [2]) was 390 nM; in assay [1] (examples table, read-out: IC50), 390 nM.
